In brackets after ≈: the same amount, converted by molar mass. Bridge positions count the residues as written; N and C are the ends. Peptide text beside a SMILES is read from it. I, II: the chains in the order shown.
Tests used:
[1] = test system: K. pneumoniae ATCC700603; type: cell-based, Klebsiella pneumoniae
Procedure: (§1) After confirming antibacterial activity, the peptides were tested against gram-positive and gram-negative multidrug-resistant bacteria, including strains of clinical origin. The peptides, p-BthTX-I, des-Lys^12/(p-BthTX-I)2, and Lys^13-(p-BthTX-I)2 were serially diluted (512–1 μM) in cation-adjusted BBL MH II broth (CAMHB; Becton, Dickson and Co., Sparks, MD, USA) as described by CLSI. Bacteria at 5.0 × 10^5 CFU/mL were added to the media and incubated for 24 h at 37 °C. […] Assays were performed in duplicates, and sterile broth was used as the negative control. To determine the minimal bactericidal concentration (MBC), 100 µL from each well of the MIC assay plates that inhibited bacterial growth were sub-cultured onto MH agar (MHA) plates. […] If the ratio of MBC/MIC was >4, the activity of the peptide was considered bacteriostatic, as described previously.

[2] = test system: E. faecium HSJRP8; type: cell-based, Enterococcus faecium; settings: for MIC: E. faecium HSJRP8 (daptomycin resistant), CAMHB, 24 h, 37 °C, duplicate; for MBC: E. faecium HSJRP8, sub-culture on MH agar, 99.9% death
Procedure: as §1

[3] = test system: E. faecium VRE16; type: cell-based, Enterococcus faecium; settings: for MIC: E. faecium VRE16 (vancomycin resistant), CAMHB, 24 h, 37 °C, duplicate; for MBC: E. faecium VRE16, sub-culture on MH agar, 99.9% death
Procedure: as §1

[4] = test system: S. aureus SA90; type: cell-based, Staphylococcus aureus
Procedure: as §1

[5] = test system: E. coli CA4; type: cell-based, Escherichia coli; settings: for MIC: E. coli CA4 (commensal), CAMHB, 24 h, 37 °C, duplicate; for MBC: E. coli CA4, sub-culture on MH agar, 99.9% death
Procedure: as §1

[6] = test system: E. coli ATCC35218; type: cell-based, Escherichia coli; settings: for MIC: E. coli ATCC35218, CAMHB, 24 h, 37 °C, duplicate; for MBC: E. coli ATCC35218, sub-culture on MH agar, 99.9% death
Procedure: as §1

[7] = test system: S. aureus ATCC25923; assay: MIC, microdilution in MH broth (initial screening); type: cell-based, Staphylococcus aureus; settings: 24 h, 37 °C, resazurin, triplicate
Procedure: The minimum inhibitory concentrations (MIC) were determined following the Clinical and Laboratory Standards Institute (CLSI) recommendations. Antibacterial and antifungal activity tests were performed using the microdilution method. For initial screening, peptides were tested against C. albicans ATCC18804, E. coli ATCC25922, and S. aureus ATCC25923. Briefly, bacterial cells in MH broth (80 μL aliquots containing 1.5 × 10^7 CFU) were incubated with synthetic peptides (serial dilution from 512 to 1 μM) dissolved in Milli-Q water. After incubation for 24 h at 37 °C, the microtiter plates were analyzed visually by addition of resazurin. For the antifungal assays, the culture medium was RPMI 1640 buffered with L-glutamine (pH 7.2), 0.165 M morpholinepropanesulfonic acid (MOPS), and 2% glucose. Cell suspensions (final concentration of 1 × 10^3–2.5 × 10^3 CFU/mL) were inoculated on a microdilution plate previously prepared with serially diluted synthetic peptides (128–1 μM). The plates were incubated for 48 h at 37 °C. Each assay was performed in triplicates. Additionally, amphotericin B and fluconazole were used as the control drugs. MIC was defined as the lowest concentration of peptide at which no growth was detected.

| Structure (SMILES) | MIC ([1]; K. pneumoniae ATCC700603 (SHV-18), CAMHB, 24 h, 37 °C) [µM] | MBC ([1]; K. pneumoniae ATCC700603, sub-culture on MH agar, 99.9% death) [µM] | MIC [2] [µM] | MBC [2] [µM] | MIC [3] [µM] | MBC [3] [µM] | MIC ([4]; S. aureus SA90 (MRSA), CAMHB, 24 h, 37 °C) [µM] | MBC ([4]; S. aureus SA90, sub-culture on MH agar, 99.9% death) [µM] | MIC [5] [µM] | MBC [5] [µM] | MIC [6] [µM] | MBC [6] [µM] | MIC [7] [µM] |
| --- | --- | --- | --- | --- | --- | --- | --- | --- | --- | --- | --- | --- | --- |
| CC(C)C[C@H](NC(=O)[C@H](Cc1c[nH]cn1)NC(=O)[C@H](Cc1ccc(O)cc1)NC(=O)[C@H](CCCNC(=N)N)NC(=O)[C@H](Cc1ccc(O)cc1)NC(=O)[C@H](CCCCN)NC(=O)[C@@H](N)CCCCN)C(=O)N[C@@H](CCCCN)C(=O)N1CCC[C@H]1C(=O)N[C@@H](Cc1ccccc1)C(=O)N[C@@H](CSSC[C@H](NC(=O)[C@H](Cc1ccccc1)NC(=O)[C@@H]1CCCN1C(=O)[C@H](CCCCN)NC(=O)[C@H](CC(C)C)NC(=O)[C@H](Cc1c[nH]cn1)NC(=O)[C@H](Cc1ccc(O)cc1)NC(=O)[C@H](CCCNC(=N)N)NC(=O)[C@H](Cc1ccc(O)cc1)NC(=O)[C@H](CCCCN)NC(=O)[C@@H](N)CCCCN)C(=O)N[C@@H](CCCCN)C(=O)N[C@@H](CCCCN)C(=O)O)C(=O)N[C@@H](CCCCN)C(=O)N[C@@H](CCCCN)C(=O)O [(p-BthTX-I)2] | 64 (≈ 222 µg/mL) | 64 (≈ 222 µg/mL) | 8 (≈ 27.8 µg/mL) | >512 | 32 (≈ 111 µg/mL) | >512 | 128 (≈ 445 µg/mL) | 256 (≈ 890 µg/mL) | 256 (≈ 890 µg/mL) | 512 (≈ 1780 µg/mL) | 512 (≈ 1780 µg/mL) | 512 (≈ 1780 µg/mL) | 64 (≈ 222 µg/mL) |
| CC(C)C[C@H](NC(=O)[C@H](Cc1c[nH]cn1)NC(=O)[C@H](Cc1ccc(O)cc1)NC(=O)[C@H](CCCNC(=N)N)NC(=O)[C@H](Cc1ccc(O)cc1)NC(=O)[C@H](CCCCN)NC(=O)[C@@H](N)CCCCN)C(=O)N[C@@H](CCCCN)C(=O)N1CCC[C@H]1C(=O)N[C@@H](Cc1ccccc1)C(=O)N[C@@H](CSSC[C@H](NC(=O)[C@H](Cc1ccccc1)NC(=O)[C@@H]1CCCN1C(=O)[C@H](CCCCN)NC(=O)[C@H](CC(C)C)NC(=O)[C@H](Cc1c[nH]cn1)NC(=O)[C@H](Cc1ccc(O)cc1)NC(=O)[C@H](CCCNC(=N)N)NC(=O)[C@H](Cc1ccc(O)cc1)NC(=O)[C@H](CCCCN)NC(=O)[C@@H](N)CCCCN)C(=O)O)C(=O)O [des-Lys^12/Lys^13-(p-BthTX-I)2] (I: H-KKYRYHLKPFC-OH / II: H-KKYRYHLKPFC-OH; disulfide I:11-II:11) |  |  | 8 (≈ 23.7 µg/mL) | 32 (≈ 94.8 µg/mL) | 16 (≈ 47.4 µg/mL) | 64 (≈ 190 µg/mL) |  |  | 64 (≈ 190 µg/mL) | 128 (≈ 379 µg/mL) | 64 (≈ 190 µg/mL) | 256 (≈ 759 µg/mL) | 128 (≈ 379 µg/mL) |

— PMC6150245 (Molecules : A Journal of Synthetic Chemistry and Natural …, 2017)
